Measurements as given in US20250325535A1, “IDENTIFICATION OF NOVEL SMALL-MOLECULE INHIBITORS OF SARS-CoV-2 BY CHEMICAL GENETICS” (The University of Hong Kong, priority 2024, published 2025).

Key:
[1] = system: SARS-COV-2 Alpha variant (B.1.1.7); type: in vivo, K18-hACE2 transgenic mice; conditions: n=5, IP once daily; 172 50 mg/kg, Nirmatrelvir 200 mg/kg; vehicle mice died day 5-6
[2] = system: SARS-CoV-2 variants and other human coronaviruses; assay: microbe, parasite or virus in culture; type: cell-based; conditions: Severe acute respiratory syndrome coronavirus 2, read-out: IC50 (antiviral)
[3] = system: 3CLpro S301P recombinant SARS-CoV-2; type: cell-based; conditions: for IC50: read-out: IC50 (plaque formation assay)

| SMILES | time of death (survival) [1] | IC50 [2] [nM] | IC50 [3] [nM] | inhibition of virus replication [3] |
| --- | --- | --- | --- | --- |
| CC(C)(C)[C@H](NC(=O)C(F)(F)F)C(=O)N1C[C@H]2[C@@H]([C@H]1C(=O)N[C@H](C#N)C[C@@H]1CCNC1=O)C2(C)C [Nirmatrelvir] | one mouse died on day 6, and all remaining mice died on day 8 | 4.5 to 32 | 20.1 | – |
| CCOc1cc2ncc(C#N)c(Nc3ccc(F)c(Cl)c3)c2cc1NC(=O)/C=C/CN(C)C [Pelitinib] | – | – | 7300 | not the mutant virus |
